Values quoted from earlier work, collected in US9980959B2, “Method and composition for treating rhinitis” (Biolipox AB, priority 2004, dated 2018).

Legend:
[1] = nasal spray
[2] = mist administered to the lung with a nebulizer

In the case of O=C(O)COCCN1CCN(C(c2ccccc2)c2ccc(Cl)cc2)CC1 (stereo not shown) [cetirizine, [2-{4-[(4-chlorophenyl)-phenylmethyl]-1-piperazinyl}ethoxy]acetic acid], the “Symptoms and nasal peak flow after an allergen challenge” value [1] is listed as “reduce symptoms and increase nasal peak flow”, the “Protective effect in exercise-induced asthma” value [2] is listed as “good protective effect” and the “Effect on symptoms in perennial allergic rhinitis” value (nasal spray 0.625, 1.25, 2.5 mg/mL three times a day for two weeks) is listed as “Some effect”. The “Incidence of side effects (nasal events)” value (nasal spray versus placebo) was “no difference in incidence between the placebo and the cetirizine-treated groups”.
